Measured values from article PMC8761492 (Life Science Alliance, 2022).
Starred links: 1 amine or outer side, 2 acyl side, 3 side chain; linkers in the order of their positions; H or OH if unused. Positions of bridges follow the written chain, without caps; N, C: chain ends. Non-standard residues stand in square brackets, D forms with d. Residues, ends and D or L forms follow the SMILES beside them. *: point of attachment. X1 = CC[C@H](C)[C@@H](N[*:1])[C@@H](O)CC(=O)O[C@H](C(=O)[C@H](C)C(=O)[*:2])C(C)C; NMeY = CN[C@@H](Cc1ccc(O)cc1)C(=O)O; dNMeL = CN[C@H](CC(C)C)C(=O)O; Pyruvoyl = CC(=O)C(=O)*

Legend:
Assay in all cases: microbe, parasite or virus in culture
Format in all cases: cell-based
Details in all cases: Severe acute respiratory syndrome coronavirus 2, HeLa-ACE2, 48 h
SARS-CoV-2 ο (B.1.1.529) = system: SARS-CoV-2 ο (B.1.1.529)
SARS-CoV-2 δ (B.1.617.2) = system: SARS-CoV-2 δ (B.1.617.2)
SARS-CoV-2 μ (B.1.621) = system: SARS-CoV-2 μ (B.1.621)
SARS-CoV-2 α (B.1.1.7) = system: SARS-CoV-2 α (B.1.1.7)
SARS-CoV-2 β (B.1.351) = system: SARS-CoV-2 β (B.1.351)

Structure (SMILES): CC[C@H](C)[C@H]1NC(=O)[C@@H](NC(=O)[C@@H](CC(C)C)N(C)C(=O)[C@@H]2CCCN2C(=O)C(C)=O)[C@@H](C)OC(=O)[C@H](Cc2ccc(OC)cc2)N(C)C(=O)[C@@H]2CCCN2C(=O)[C@H](CC(C)C)NC(=O)[C@@H](C)C(=O)[C@H](C(C)C)OC(=O)C[C@@H]1O [Plitidepsin] (Pyruvoyl-P[dNMeL]T[X1]LP[NMeY](Me); ester 3-C)
- IC50 (SARS-CoV-2 ο (B.1.1.529); read-out: Antiviral IC50): 0.291 nM
- IC90 (SARS-CoV-2 ο (B.1.1.529); read-out: Antiviral IC90): 0.887 nM
- IC50 (SARS-CoV-2 δ (B.1.617.2); read-out: Antiviral IC50): 0.089 nM
- IC90 (SARS-CoV-2 δ (B.1.617.2); read-out: Antiviral IC90): 0.511 nM
- IC50 (SARS-CoV-2 μ (B.1.621); read-out: Antiviral IC50): 0.266 nM
- IC90 (SARS-CoV-2 μ (B.1.621); read-out: Antiviral IC90): 1.03 nM
- IC50 (SARS-CoV-2 α (B.1.1.7); read-out: Antiviral IC50): 0.052 nM
- IC90 (SARS-CoV-2 α (B.1.1.7); read-out: Antiviral IC90): 0.161 nM
- IC50 (SARS-CoV-2 β (B.1.351); read-out: Antiviral IC50): 0.077 nM
- IC90 (SARS-CoV-2 β (B.1.351); read-out: Antiviral IC90): 0.419 nM
